In article PMC3914206:

Columns and labels:
Assay in all cases: KiNativ chemical proteomics profiling in HeLa and PC3 cell lysates
[1] = target: T1, selected panels of kinases in HeLa and PC3 cell lysates (Homo sapiens, UniProt Q00537); format: binding; settings: 10 uM; PCTAIRE2; peptide DLkPQNLLINEK; proteome HEL; labeling site Lys2
T1 construct: endogenous in cells; host or cells: HeLa and PC3 cell lysates

[2] = target: T2, selected panels of kinases in HeLa and PC3 cell lysates (Homo sapiens, UniProt Q9Y4K4); format: binding; settings: 10 uM; proteome PC3; peptide […]kIIK; labeling site Lys1
T2 construct: endogenous in cells; host or cells: HeLa and PC3 cell lysates

[3] = target: T3, selected panels of kinases in HeLa and PC3 cell lysates (Homo sapiens, UniProt P12931); format: binding; settings: 10 uM; SRC; peptide VAIk[…]; proteome PC3; labeling site Lys1
T3 construct: endogenous in cells; host or cells: HeLa and PC3 cell lysates

[4] = target: T4, selected panels of kinases in HeLa and PC3 cell lysates (Homo sapiens, UniProt Q15418); format: binding; settings: 10 uM; RSK1 domain1; peptide LTDFGLSkEAIDHEK; proteome HEL; labeling site Activation Loop
T4 construct: endogenous in cells; host or cells: HeLa and PC3 cell lysates

[5] = target: T5, selected panels of kinases in HeLa and PC3 cell lysates (Homo sapiens, UniProt Q96GX5); format: binding; settings: 10 uM; proteome HEL; peptide LYAVkVVK; labeling site Lys1
T5 construct: endogenous in cells; host or cells: HeLa and PC3 cell lysates
T5 sequence (Q96GX5 whole entry): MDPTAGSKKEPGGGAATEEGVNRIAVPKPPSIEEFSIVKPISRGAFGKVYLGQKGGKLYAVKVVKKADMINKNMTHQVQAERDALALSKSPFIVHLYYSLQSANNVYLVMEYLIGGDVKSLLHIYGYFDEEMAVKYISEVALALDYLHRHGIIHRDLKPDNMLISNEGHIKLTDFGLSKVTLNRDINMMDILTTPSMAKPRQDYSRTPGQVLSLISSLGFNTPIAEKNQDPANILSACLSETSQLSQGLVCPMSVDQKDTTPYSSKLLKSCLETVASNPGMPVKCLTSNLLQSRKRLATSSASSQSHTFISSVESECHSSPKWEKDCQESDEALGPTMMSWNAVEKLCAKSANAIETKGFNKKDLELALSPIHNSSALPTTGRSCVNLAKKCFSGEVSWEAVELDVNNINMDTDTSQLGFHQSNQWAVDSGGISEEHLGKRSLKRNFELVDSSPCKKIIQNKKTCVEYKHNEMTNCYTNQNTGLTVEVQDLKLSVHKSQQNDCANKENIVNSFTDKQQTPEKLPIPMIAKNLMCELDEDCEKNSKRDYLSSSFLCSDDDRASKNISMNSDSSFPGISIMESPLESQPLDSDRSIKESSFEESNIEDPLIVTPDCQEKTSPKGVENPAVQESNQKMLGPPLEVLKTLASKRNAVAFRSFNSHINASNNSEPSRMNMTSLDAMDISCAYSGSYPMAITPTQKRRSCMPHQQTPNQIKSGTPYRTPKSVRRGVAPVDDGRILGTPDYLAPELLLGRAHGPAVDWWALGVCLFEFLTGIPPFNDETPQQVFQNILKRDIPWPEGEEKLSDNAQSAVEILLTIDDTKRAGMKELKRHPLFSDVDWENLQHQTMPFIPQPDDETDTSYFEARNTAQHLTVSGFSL

[6] = target: T6, selected panels of kinases in HeLa and PC3 cell lysates (Homo sapiens, UniProt Q9UBS0); format: binding; settings: 10 uM; p70S6Kb; peptide DLk[…]; proteome HEL; labeling site Lys2
T6 construct: endogenous in cells; host or cells: HeLa and PC3 cell lysates

[7] = target: T7, selected panels of kinases in HeLa and PC3 cell lysates (Homo sapiens, UniProt P19525); format: binding; settings: 10 uM, PKR, peptide DLk[…], labeling site Lys2
T7 construct: endogenous in cells; host or cells: HeLa and PC3 cell lysates
T7 sequence (P19525 whole entry): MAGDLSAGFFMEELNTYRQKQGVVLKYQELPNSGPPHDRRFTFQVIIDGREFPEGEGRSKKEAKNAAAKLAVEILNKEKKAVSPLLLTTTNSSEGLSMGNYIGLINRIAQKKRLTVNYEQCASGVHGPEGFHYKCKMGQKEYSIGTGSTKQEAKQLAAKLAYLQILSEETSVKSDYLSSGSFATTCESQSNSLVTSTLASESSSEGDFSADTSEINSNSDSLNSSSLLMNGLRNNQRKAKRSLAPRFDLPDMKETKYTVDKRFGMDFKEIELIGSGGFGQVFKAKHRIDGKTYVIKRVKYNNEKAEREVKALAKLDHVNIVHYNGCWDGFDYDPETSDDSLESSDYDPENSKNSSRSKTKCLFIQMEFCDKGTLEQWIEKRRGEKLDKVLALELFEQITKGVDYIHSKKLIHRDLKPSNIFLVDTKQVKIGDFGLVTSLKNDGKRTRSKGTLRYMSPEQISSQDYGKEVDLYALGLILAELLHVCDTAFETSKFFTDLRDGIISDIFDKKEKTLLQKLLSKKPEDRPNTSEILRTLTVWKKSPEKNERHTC

[8] = target: T8, selected panels of kinases in HeLa and PC3 cell lysates (Homo sapiens, UniProt Q7KZI7); format: binding; settings: 10 uM; proteome PC3; peptide EVAVk[…]; labeling site Lys1
T8 construct: endogenous in cells; host or cells: HeLa and PC3 cell lysates

[9] = target: T9, selected panels of kinases in HeLa and PC3 cell lysates (Homo sapiens, UniProt Q14012); format: binding; settings: 10 uM; proteome HEL; peptide LVAIkCIAK; labeling site Lys1
T9 construct: endogenous in cells; host or cells: HeLa and PC3 cell lysates
T9 sequence (Q14012 whole entry): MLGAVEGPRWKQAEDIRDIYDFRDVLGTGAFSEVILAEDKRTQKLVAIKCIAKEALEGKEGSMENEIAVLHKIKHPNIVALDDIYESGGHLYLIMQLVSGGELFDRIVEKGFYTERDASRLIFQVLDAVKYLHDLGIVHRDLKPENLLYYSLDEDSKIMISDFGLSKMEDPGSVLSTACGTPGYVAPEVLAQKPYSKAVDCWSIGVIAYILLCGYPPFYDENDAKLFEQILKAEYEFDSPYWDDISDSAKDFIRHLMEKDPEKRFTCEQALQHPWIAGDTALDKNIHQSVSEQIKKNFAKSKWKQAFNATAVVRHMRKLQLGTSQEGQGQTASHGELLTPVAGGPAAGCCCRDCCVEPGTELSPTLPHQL

[10] = target: T10, selected panels of kinases in HeLa and PC3 cell lysates (Homo sapiens, UniProt Q16584); format: binding; settings: 10 uM, peptide DLk[…], labeling site Lys2
T10 construct: endogenous in cells; host or cells: HeLa and PC3 cell lysates
T10 sequence (Q16584 whole entry): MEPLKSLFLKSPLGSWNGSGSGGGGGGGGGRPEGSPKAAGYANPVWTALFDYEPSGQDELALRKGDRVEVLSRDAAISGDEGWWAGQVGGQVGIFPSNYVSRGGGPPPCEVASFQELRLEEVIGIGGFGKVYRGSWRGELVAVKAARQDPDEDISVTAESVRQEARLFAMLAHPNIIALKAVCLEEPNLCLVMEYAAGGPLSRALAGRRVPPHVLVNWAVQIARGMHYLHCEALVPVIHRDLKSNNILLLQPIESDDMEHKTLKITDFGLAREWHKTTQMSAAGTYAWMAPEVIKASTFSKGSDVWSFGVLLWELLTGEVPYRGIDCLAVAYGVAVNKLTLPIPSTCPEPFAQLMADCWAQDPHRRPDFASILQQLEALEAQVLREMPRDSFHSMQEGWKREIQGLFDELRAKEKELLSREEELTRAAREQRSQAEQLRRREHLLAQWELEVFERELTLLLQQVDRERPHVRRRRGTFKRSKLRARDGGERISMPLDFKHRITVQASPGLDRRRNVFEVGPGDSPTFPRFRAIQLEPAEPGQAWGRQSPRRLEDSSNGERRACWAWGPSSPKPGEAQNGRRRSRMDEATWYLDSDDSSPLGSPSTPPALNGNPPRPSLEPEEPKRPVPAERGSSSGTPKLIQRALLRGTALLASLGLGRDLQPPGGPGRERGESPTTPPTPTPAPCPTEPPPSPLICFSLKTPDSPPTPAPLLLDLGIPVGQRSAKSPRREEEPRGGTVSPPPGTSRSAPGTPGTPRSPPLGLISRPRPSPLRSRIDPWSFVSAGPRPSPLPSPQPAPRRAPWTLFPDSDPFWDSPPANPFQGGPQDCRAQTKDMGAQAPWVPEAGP

[11] = target: T11, selected panels of kinases in HeLa and PC3 cell lysates (Homo sapiens, UniProt Q15375); format: binding; settings: 10 uM; proteome PC3; peptide […]kIPVR; labeling site Activation Loop
T11 construct: endogenous in cells; host or cells: HeLa and PC3 cell lysates

[12] = test system: selected panels of kinases in HeLa and PC3 cell lysates; format: binding, human; settings: 10 uM; for % Inhibition PI4KA,PI4KAP2: peptide SGTPMQSAAkAPYLAK, labeling site ATP; for % Inhibiton, MAP3K2,MAP3K3: peptide DIkGANILR; for % Inhibiton, IKKe,TBK1: peptide DIkPGNIMR; for % Inhibiton, JNK1,JNK2,JNK3: peptide DLkPSNIVVK; for % Inhibiton, MAP2K1,MAP2K2: peptide DVkPSNILVNSR
[13] = target: T12, selected panels of kinases in HeLa and PC3 cell lysates (Homo sapiens, UniProt P52564); format: binding; settings: 10 uM
T12 construct: endogenous in cells; host or cells: HeLa and PC3 cell lysates
T12 sequence (P52564 1-334): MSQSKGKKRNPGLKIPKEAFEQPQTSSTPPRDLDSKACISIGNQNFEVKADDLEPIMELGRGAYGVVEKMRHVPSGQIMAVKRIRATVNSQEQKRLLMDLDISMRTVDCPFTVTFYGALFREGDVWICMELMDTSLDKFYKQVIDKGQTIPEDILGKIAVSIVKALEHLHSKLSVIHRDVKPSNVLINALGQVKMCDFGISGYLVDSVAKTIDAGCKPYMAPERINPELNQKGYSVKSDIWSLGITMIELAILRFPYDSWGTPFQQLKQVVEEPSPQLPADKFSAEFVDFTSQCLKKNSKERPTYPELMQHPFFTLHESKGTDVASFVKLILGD

[14] = target: T13, selected panels of kinases in HeLa and PC3 cell lysates (Homo sapiens, UniProt Q16539); format: binding; settings: 10 uM
T13 construct: endogenous in cells; host or cells: HeLa and PC3 cell lysates
T13 sequence (Q16539 whole entry): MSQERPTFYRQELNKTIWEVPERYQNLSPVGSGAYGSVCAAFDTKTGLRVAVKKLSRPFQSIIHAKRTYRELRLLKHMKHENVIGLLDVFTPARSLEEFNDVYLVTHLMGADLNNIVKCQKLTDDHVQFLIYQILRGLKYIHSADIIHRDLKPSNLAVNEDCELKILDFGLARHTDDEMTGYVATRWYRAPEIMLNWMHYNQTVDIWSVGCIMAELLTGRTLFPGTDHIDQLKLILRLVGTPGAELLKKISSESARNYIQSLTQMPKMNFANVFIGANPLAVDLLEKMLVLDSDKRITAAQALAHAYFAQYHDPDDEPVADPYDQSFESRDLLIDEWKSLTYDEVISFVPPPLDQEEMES

[15] = target: T14, selected panels of kinases in HeLa and PC3 cell lysates (Homo sapiens, UniProt Q9UL54); format: binding; settings: 10 uM; TAO2; peptide DVk[…]; proteome PC3; labeling site Lys2
T14 construct: endogenous in cells; host or cells: HeLa and PC3 cell lysates
T14 sequence (Q9UL54 whole entry): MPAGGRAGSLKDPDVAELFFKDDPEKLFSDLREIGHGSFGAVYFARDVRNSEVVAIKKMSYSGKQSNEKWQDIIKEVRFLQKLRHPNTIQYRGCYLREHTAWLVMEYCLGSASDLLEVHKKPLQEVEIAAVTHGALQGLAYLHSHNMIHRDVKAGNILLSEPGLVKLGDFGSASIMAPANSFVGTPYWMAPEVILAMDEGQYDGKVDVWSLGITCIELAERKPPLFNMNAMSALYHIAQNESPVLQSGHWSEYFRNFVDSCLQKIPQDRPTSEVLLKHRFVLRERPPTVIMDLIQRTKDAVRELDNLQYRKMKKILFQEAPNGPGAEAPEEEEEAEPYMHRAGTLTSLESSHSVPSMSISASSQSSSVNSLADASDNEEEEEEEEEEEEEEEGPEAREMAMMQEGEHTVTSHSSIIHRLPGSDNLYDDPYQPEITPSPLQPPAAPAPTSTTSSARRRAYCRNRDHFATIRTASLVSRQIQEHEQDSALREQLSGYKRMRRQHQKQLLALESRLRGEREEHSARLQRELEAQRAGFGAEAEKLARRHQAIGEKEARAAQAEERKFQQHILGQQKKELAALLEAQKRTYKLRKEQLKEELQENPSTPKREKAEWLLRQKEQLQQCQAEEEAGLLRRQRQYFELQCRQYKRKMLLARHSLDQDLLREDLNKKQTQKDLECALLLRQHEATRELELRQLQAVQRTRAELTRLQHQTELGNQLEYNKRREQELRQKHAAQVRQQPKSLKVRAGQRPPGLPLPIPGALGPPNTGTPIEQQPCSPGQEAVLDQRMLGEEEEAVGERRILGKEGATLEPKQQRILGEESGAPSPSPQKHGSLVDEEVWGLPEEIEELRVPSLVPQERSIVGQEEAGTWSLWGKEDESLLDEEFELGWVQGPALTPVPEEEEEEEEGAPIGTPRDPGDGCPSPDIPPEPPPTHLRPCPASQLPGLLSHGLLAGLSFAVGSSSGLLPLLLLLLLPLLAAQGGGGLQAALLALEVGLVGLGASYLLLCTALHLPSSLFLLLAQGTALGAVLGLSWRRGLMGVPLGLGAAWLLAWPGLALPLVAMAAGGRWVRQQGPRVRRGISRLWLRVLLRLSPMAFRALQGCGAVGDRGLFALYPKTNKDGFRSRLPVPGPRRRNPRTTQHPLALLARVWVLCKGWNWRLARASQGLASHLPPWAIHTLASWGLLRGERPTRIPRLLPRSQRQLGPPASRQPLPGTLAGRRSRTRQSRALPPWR

[16] = target: T15, selected panels of kinases in HeLa and PC3 cell lysates (Homo sapiens, UniProt Q00536); format: binding; settings: 10 uM; PCTAIRE1; peptide LTDNLVALkEIR; proteome PC3; labeling site Lys1
T15 construct: endogenous in cells; host or cells: HeLa and PC3 cell lysates

[17] = peptide DIk[…], proteome HEL, labeling site Lys2
[18] = peptide DIk[…], proteome PC3, labeling site Lys2
[19] = proteome HEL, labeling site Lys2
[20] = proteome HEL, peptide DLk[…], labeling site Lys2
[21] = proteome HEL, peptide DVk[…], labeling site Lys2
[22] = proteome PC3, labeling site Lys2
[23] = proteome PC3, peptide DIk[…], labeling site Lys2
[24] = proteome PC3, peptide DLk[…], labeling site Lys2
[25] = proteome PC3, peptide DVk[…], labeling site Lys2

T1 sequence (Q00537 whole entry): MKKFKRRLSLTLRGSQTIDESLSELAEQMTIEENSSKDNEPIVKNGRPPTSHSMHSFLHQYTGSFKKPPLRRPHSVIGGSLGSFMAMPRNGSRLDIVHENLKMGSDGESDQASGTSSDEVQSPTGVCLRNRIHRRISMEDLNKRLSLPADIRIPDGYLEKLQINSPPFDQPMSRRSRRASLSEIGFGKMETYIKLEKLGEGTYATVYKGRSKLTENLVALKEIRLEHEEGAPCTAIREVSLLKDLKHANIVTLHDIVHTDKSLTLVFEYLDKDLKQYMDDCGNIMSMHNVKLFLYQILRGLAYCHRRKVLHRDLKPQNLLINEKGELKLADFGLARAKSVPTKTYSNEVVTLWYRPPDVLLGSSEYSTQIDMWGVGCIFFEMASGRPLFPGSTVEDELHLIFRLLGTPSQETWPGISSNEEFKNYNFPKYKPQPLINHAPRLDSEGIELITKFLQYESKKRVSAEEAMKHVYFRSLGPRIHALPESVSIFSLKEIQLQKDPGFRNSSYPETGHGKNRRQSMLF

COc1cc(C(=O)N2CCC(N3CCN(C)CC3)CC2)ccc1Nc1ncc2c(n1)N(C1CCCC1)c1ccccc1C(=O)N2C [Compound 25, 11-cyclopentyl-2-((2-methoxy-4-(4-(4-methylpiperazin-1-yl)piperidine-1-carbonyl)phenyl)amino)-5-methyl-5H-benzo[e]pyrimido[5,4-b][1,4]diazepin-6(11H)-one]
% Inhibition PCTAIRE2 [1]: 4.8%
% Inhibiton, KHS1 [2]: -6.6%
% Inhibition SRC [3]: -3.4%
% Inhibition RSK1 domain1 [4]: 0.161%
% Inhibiton, MASTL [5]: 14.5%
% Inhibition p70S6Kb [6]: 8.4%
% Inhibition PKR ([7]; proteome HEL): 6.1%
% Inhibition PKR ([7]; proteome PC3): -3.4%
% Inhibiton, MARK2 [8]: 1.3%
% Inhibiton, CaMK1a [9]: 19.1%
% Inhibiton, MLK3 ([10]; proteome HEL): 3.1%
% Inhibiton, MLK3 ([10]; proteome PC3): 4.4%
% Inhibiton, EphA7 [11]: -3.8%
% Inhibition PI4KA,PI4KAP2 ([12]; proteome HEL): 23.7%
% Inhibition PI4KA,PI4KAP2 ([12]; proteome PC3): -7.2%
% Inhibition PKCa,PKCb ([12]; PKCa,PKCb, peptide DLk[…], proteome PC3, labeling site Lys2): 16.4%
% Inhibition PKD1,PKD2 ([12]; PKD1,PKD2, peptide NIVHCDLk[…], proteome HEL, labeling site Lys2): -30.1%
% Inhibition ROCK1,ROCK2 ([12]; ROCK1,ROCK2, peptide DVkPDNMLLDK, proteome PC3, labeling site Lys2): 5.7%
% Inhibition RSK1,RSK2 domain1 ([12]; RSK1,RSK2 domain1, peptide DLk[…], proteome HEL, labeling site Lys2): -6.2%
% Inhibition RSK1,RSK4 domain1 ([12]; RSK1,RSK4 domain1, peptide VLGQGSFGkVFLVR, proteome HEL, labeling site ATP Loop): -4.9%
% Inhibition SRPK1,SRPK2 ([12]; SRPK1,SRPK2, peptide FVAMkVVK, proteome PC3, labeling site Lys1): -2.0%
% Inhibition TAO1,TAO3 [12, 17]: 21.0%
% Inhibition TAO1,TAO3 [12, 18]: -5.2%
% Inhibition Wnk1,Wnk2,Wnk3 ([12]; Wnk1,Wnk2,Wnk3, peptide DLk[…], proteome HEL, labeling site Lys2): 9.6%
% Inhibition Wnk1,Wnk2,Wnk4 ([12]; Wnk1,Wnk2,Wnk4, peptide IGDLGLATLkR, proteome PC3, labeling site Activation Loop): -9.4%
% Inhibition ZC1/HGK,ZC2/TNIK,ZC3/MINK [12, 17]: 10.0%
% Inhibition ZC1/HGK,ZC2/TNIK,ZC3/MINK [12, 18]: -6.5%
% Inhibition p70S6K,p70S6Kb ([12]; p70S6K,p70S6Kb, peptide GGYGkVFQVR, proteome PC3, labeling site ATP Loop): -1.5%
% Inhibiton, MAP3K2,MAP3K3 [12, 19]: 14.4%
% Inhibiton, IKKe,TBK1 [12, 19]: 18.2%
% Inhibiton, NEK6,NEK7 ([12]; proteome HEL, peptide DIk[…], labeling site Lys2): 6.9%
% Inhibiton, JNK1,JNK2,JNK3 [12, 19]: 33.5%
% Inhibiton, AMPKa1,AMPKa2 [12, 20]: 9.6%
% Inhibiton, MARK2,MARK3 [12, 20]: 9.5%
% Inhibiton, MAST2,MAST4 [12, 20]: 28.2%
% Inhibiton, p38d,p38g [12, 20]: 12.3%
% Inhibiton, MAP2K1,MAP2K2 [12, 19]: -0.9%
% Inhibiton, MYO3A,MYO3B [12, 21]: -3.3%
% Inhibiton, BMX,BTK ([12]; proteome HEL, peptide GQYDVAIkMIK, labeling site Lys1): ~43.0%
% Inhibiton, MAP3K5,MAP3K6,MAP3K7 ([12]; proteome HEL, peptide IAIkEIPERDSR, labeling site Lys1): -4.3%
% Inhibiton, KSR1,KSR2 ([12]; proteome HEL, peptide SkNVFYDNGK, labeling site Protein Kinase Domain): 6.2%
% Inhibiton, AMPKa1,AMPKa2 ([12]; proteome HEL, peptide VAVkILNR, labeling site Lys1): 10.9%
% Inhibiton, MSK1,MSK2 domain1 ([12]; proteome HEL, peptide VLGTGAYGkVFLVR, labeling site ATP Loop): -9.5%
% Inhibiton, ABL,ARG ([12]; proteome HEL, peptide […]kFPIK, labeling site Activation Loop): 17.5%
% Inhibiton, MAP3K2,MAP3K3 [12, 22]: -0.6%
% Inhibiton, IKKe,TBK1 [12, 22]: 11.0%
% Inhibiton, MST1,MST2 [12, 23]: 8.8%
% Inhibiton, MST4,YSK1 [12, 23]: 1.0%
% Inhibiton, NEK6,NEK7 [12, 23]: -5.0%
% Inhibiton, CaMK2a,CaMK2b,CaMK2d,CaMK2g ([12]; proteome PC3, peptide DLkPENLLLASK, labeling site Lys2): -1.1%
% Inhibiton, JNK1,JNK2,JNK3 [12, 22]: 30.3%
% Inhibiton, AMPKa1,AMPKa2 [12, 24]: 16.4%
% Inhibiton, CDK11,CDK8 [12, 24]: 8.9%
% Inhibiton, MARK2,MARK3 [12, 24]: 11.6%
% Inhibiton, p38d,p38g [12, 24]: -6.8%
% Inhibiton, MAP2K1,MAP2K2 [12, 22]: -0.2%
% Inhibiton, CK1d,CK1e [12, 25]: -16.9%
% Inhibiton, MARK3,MARK4 ([12]; proteome PC3, peptide EVAIkIIDK, labeling site Lys1): -5.2%
% Inhibiton, FYN,SRC,YES ([12]; proteome PC3, peptide QGAk[…], labeling site Activation Loop): -32.2%
% Inhibiton, AMPKa1,AMPKa2 ([12]; proteome PC3, peptide VAVkILNR, labeling site Lys1): 14.9%
% Inhibiton, MAP2K6 [13, 21]: 14.2%
% Inhibiton, MAP2K6 [13, 25]: -3.9%
% Inhibiton, MAP2K6 ([13]; proteome PC3, peptide […]kR, labeling site Lys1): 12.8%
% Inhibiton, p38a [14, 20]: 6.5%
% Inhibiton, p38a ([14]; proteome HEL, peptide QELNkTIWEVPER, labeling site Other): 12.6%
% Inhibiton, p38a [14, 24]: 42.4%
% Inhibiton, p38a ([14]; proteome PC3, peptide QELNkTIWEVPER, labeling site Other): -7.5%
% Inhibition TAO2 [15]: 0.261%
% Inhibition PCTAIRE1 [16]: -25.8%
